Reference: patent US20100041089A1, “IMPROVED METHOD FOR DETECTING CHEMICAL […]” (priority 2006, published 2010)

System: yeast genes (expressed mRNA)
Experiment: DNA chip measurement of expressed mRNA of yeast genes after culture with a toxic chemical substance
Assay type: cell-based, Saccharomyces cerevisiae S288C
Procedure: Yeast (Saccharomyces cerevisiae S288C (a SUC2mal mel gap2 CUP1)) were cultured at 25° C. on YPD medium (yeast extract 1%, polypeptone 2%, glucose 2%). One of toxic chemical substances was added to the cell at logarithmic growth phase, and the cell was further cultured for two hours. Cell was cultured without any chemical substance in the same condition, and was used as a control. Concentrations of the chemical substances were defined to inhibit the growth of the yeast but not lead to death.
After the completion of cultivation, the culture was centrifuged to collect the cells. To the cells, sodium acetate buffer (50 mM sodium acetate, 10 mM EDTA, 1% SDS) was added, and the mixture was shaken at 65° C. for five minutes, followed by returning to room temperature, and obtaining the supernatant, which procedure was repeated two times. To the supernatant, ½ amount of a solution of phenol/chloroform (1:1) was added, and the mixture was centrifuged to give a supernatant, an equal amount of chloroform was added, and the mixture was centrifuged to give a supernatant. To the supernatant, an equal amount of isopropanol containing 0.3 M sodium acetate was added, and the mixture was allowed to stand at room temperature for 30 minutes, after which the mixture was centrifuged to give sediment of the whole RNAs. Seventy % ethanol was added to the sediment, and the mixture was again centrifuged to give sediment, which was then dried and dissolved in water. mRNA was isolated from the whole RNAs as followings. In view of the fact that a poly A chain is attached to the 3′ terminus of mRNA, a polynucleotide having a poly T structure which was immobilized on the surface of latex beads was used to trap the mRNA, and then the mRNA was washed and eluted with spine column (Oligotex-dT30<Super>mRNA Purification Kit, Takara). Reverse transcription of the mRNA was conducted with a reverse transcriptase (Super Script II Reverse Transcriptase; catalogue No. 18064-014, GibcoBRL) using fluorescence-labeled nucleotides to give cDNAs that were introduced with Cy3-dUTP or Cy5-dUTP during the reverse transcription.
The labeled cDNAs were dissolved in TE buffer (10 mM Tris-HCl/1 mM EDTA, pH 8.0), and the solution was dropped on the DNA chip containing the whole genes of yeast (DNA Chip Research Inc. Japan) so that the cDNAs were hybridized on the DNA chip at 65° C. for over 12 hours. The fluoresces intensity of the DNA chip was read with a scanner, and the ratio relative to the fluorescence intensity resulting from the absence of chemical substance was estimated as the following, which is shown in Tables 1 to 9.
In the Tables, “Intensity” indicated in the rightmost column is a value of the level of expressed mRNA of each gene in control cells as divided by the average level of the expressions of the whole genes. A gene of which mRNA level is lower in control, and is higher in cases of addition of chemical substance, is especially useful in the detection of toxic substances.
Here, when a ratio of an amount of mRNA expressed in the presence of the chemical substance to an amount of mRNA expressed in the absence of the chemical substance is two or more, then it is considered significant.

Oc1cc(Cl)c(Cl)cc1Cl [(6), 2,4,5-Trichlorophenol]
The level of expressed mRNA in the presence of chemical substance/The level of expressed mRNA in the absence of chemical substance (yeast gene YNL092W, cultured two hours with substance): 1.2
The level of expressed mRNA in the presence of chemical substance/The level of expressed mRNA in the absence of chemical substance (yeast gene YNL115C, cultured two hours with substance): 9.1
The level of expressed mRNA in the presence of chemical substance/The level of expressed mRNA in the absence of chemical substance (yeast gene YNL156C, cultured two hours with substance): 1.3
The level of expressed mRNA in the presence of chemical substance/The level of expressed mRNA in the absence of chemical substance (yeast gene YNL160W (stress protein genes)): 5.8
The level of expressed mRNA in the presence of chemical substance/The level of expressed mRNA in the absence of chemical substance (yeast gene YNL190W, cultured two hours with substance): 0.5
The level of expressed mRNA in the presence of chemical substance/The level of expressed mRNA in the absence of chemical substance (yeast gene YNL208W, cultured two hours with substance): 1.4
The level of expressed mRNA in the presence of chemical substance/The level of expressed mRNA in the absence of chemical substance (yeast gene YNL234W, cultured two hours with substance): 1.3
The level of expressed mRNA in the presence of chemical substance/The level of expressed mRNA in the absence of chemical substance (yeast gene YNL281W, cultured two hours with substance): 0.9
The level of expressed mRNA in the presence of chemical substance/The level of expressed mRNA in the absence of chemical substance (yeast gene YNL300W, cultured two hours with substance): 0.4
The level of expressed mRNA in the presence of chemical substance/The level of expressed mRNA in the absence of chemical substance (yeast gene YNL305C, cultured two hours with substance): 1.1
The level of expressed mRNA in the presence of chemical substance/The level of expressed mRNA in the absence of chemical substance (yeast gene YNR064C, cultured two hours with substance): 2.1
The level of expressed mRNA in the presence of chemical substance/The level of expressed mRNA in the absence of chemical substance (yeast gene YNR068C, cultured two hours with substance): 0.4
The level of expressed mRNA in the presence of chemical substance/The level of expressed mRNA in the absence of chemical substance (yeast gene YOL032W, cultured two hours with substance): 2.1
The level of expressed mRNA in the presence of chemical substance/The level of expressed mRNA in the absence of chemical substance (yeast gene YOL036W, cultured two hours with substance): 1.2
The level of expressed mRNA in the presence of chemical substance/The level of expressed mRNA in the absence of chemical substance (yeast gene YOL047C, cultured two hours with substance): 1.5
The level of expressed mRNA in the presence of chemical substance/The level of expressed mRNA in the absence of chemical substance (yeast gene YOL071W, cultured two hours with substance): 1.7
The level of expressed mRNA in the presence of chemical substance/The level of expressed mRNA in the absence of chemical substance (yeast gene YOL082W, cultured two hours with substance): 1.8
The level of expressed mRNA in the presence of chemical substance/The level of expressed mRNA in the absence of chemical substance (yeast gene YOL083W, cultured two hours with substance): 4.5
The level of expressed mRNA in the presence of chemical substance/The level of expressed mRNA in the absence of chemical substance (yeast gene YOL117W, cultured two hours with substance): 2.0
The level of expressed mRNA in the presence of chemical substance/The level of expressed mRNA in the absence of chemical substance (yeast gene YOL131W, cultured two hours with substance): 1.1
The level of expressed mRNA in the presence of chemical substance/The level of expressed mRNA in the absence of chemical substance (yeast gene YOL150C, cultured two hours with substance): 5.2
The level of expressed mRNA in the presence of chemical substance/The level of expressed mRNA in the absence of chemical substance (yeast gene YOL162W, cultured two hours with substance): 1.2
The level of expressed mRNA in the presence of chemical substance/The level of expressed mRNA in the absence of chemical substance (yeast gene YOR019W, cultured two hours with substance): 1.3
The level of expressed mRNA in the presence of chemical substance/The level of expressed mRNA in the absence of chemical substance (yeast gene YOR197W, cultured two hours with substance): 1.3
The level of expressed mRNA in the presence of chemical substance/The level of expressed mRNA in the absence of chemical substance (yeast gene YOR248W, cultured two hours with substance): 0.2
The level of expressed mRNA in the presence of chemical substance/The level of expressed mRNA in the absence of chemical substance (yeast gene YOR255W, cultured two hours with substance): 0.5
The level of expressed mRNA in the presence of chemical substance/The level of expressed mRNA in the absence of chemical substance (yeast gene YOR382W, cultured two hours with substance): 13.1
The level of expressed mRNA in the presence of chemical substance/The level of expressed mRNA in the absence of chemical substance (yeast gene YOR383C): 6.8
The level of expressed mRNA in the presence of chemical substance/The level of expressed mRNA in the absence of chemical substance (yeast gene YPL052W, cultured two hours with substance): 1.9
The level of expressed mRNA in the presence of chemical substance/The level of expressed mRNA in the absence of chemical substance (yeast gene YPL087W, cultured two hours with substance): 4.3
The level of expressed mRNA in the presence of chemical substance/The level of expressed mRNA in the absence of chemical substance (yeast gene YPL196W, cultured two hours with substance): 2.0
The level of expressed mRNA in the presence of chemical substance/The level of expressed mRNA in the absence of chemical substance (yeast gene YPL206C, cultured two hours with substance): 1.8
The level of expressed mRNA in the presence of chemical substance/The level of expressed mRNA in the absence of chemical substance (yeast gene YPL222W, cultured two hours with substance): 2.2
The level of expressed mRNA in the presence of chemical substance/The level of expressed mRNA in the absence of chemical substance (yeast gene YPR023C, cultured two hours with substance): 1.4
The level of expressed mRNA in the presence of chemical substance/The level of expressed mRNA in the absence of chemical substance (yeast gene YPR079W, cultured two hours with substance): 1.0
The level of expressed mRNA in the presence of chemical substance/The level of expressed mRNA in the absence of chemical substance (yeast gene YPR151C, cultured two hours with substance): 1.6
